Calls of active or inactive are those of the source.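 Rule for the calls: active = half-maximal concentration for changing protein binding to DNA, from the fitted dose curve, below 10 micromolar; inactive = the rest.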

The target in this assay is Nuclear receptor subfamily 1 group D member 1 (Homo sapiens) (UniProt P20393). Description: Rev-erbα–DNA interaction modulators – biochemical, FITC-DNA, fluorescence polarization, dose response (AID 1259321). The following applies: Rev-erb alpha-FITC-DNA binding.
Sequence of Nuclear receptor subfamily 1 group D member 1 (Homo sapiens) (P20393 whole entry, looked up): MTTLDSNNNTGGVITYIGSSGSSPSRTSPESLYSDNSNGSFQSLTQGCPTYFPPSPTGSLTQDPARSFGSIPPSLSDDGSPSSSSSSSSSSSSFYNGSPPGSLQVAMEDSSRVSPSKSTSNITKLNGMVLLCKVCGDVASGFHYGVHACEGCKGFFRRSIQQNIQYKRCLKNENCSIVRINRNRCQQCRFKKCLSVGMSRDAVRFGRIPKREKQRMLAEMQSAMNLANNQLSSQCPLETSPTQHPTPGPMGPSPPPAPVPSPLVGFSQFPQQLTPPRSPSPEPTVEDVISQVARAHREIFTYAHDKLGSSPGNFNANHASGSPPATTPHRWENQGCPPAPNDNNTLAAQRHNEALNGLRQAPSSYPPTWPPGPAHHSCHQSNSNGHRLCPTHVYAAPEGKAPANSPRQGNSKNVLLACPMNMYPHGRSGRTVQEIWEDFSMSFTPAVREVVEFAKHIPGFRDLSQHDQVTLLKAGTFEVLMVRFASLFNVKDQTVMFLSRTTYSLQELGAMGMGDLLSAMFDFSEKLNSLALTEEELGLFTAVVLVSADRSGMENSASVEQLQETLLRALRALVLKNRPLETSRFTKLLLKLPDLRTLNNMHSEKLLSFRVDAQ
Consider `CCc1nnc(NC(=O)CSc2nc3cc4c(cc3cc2CC)OCCO4)s1`, for which the concentration for half-maximal inhibition (IC50) was 3.66 µM. For the molecule `Cc1ccc(-c2cc(C(F)F)nc3sc4c(=O)[nH]cnc4c23)cc1`, the IC50 is 6.05 µM. Regarding `COc1ccc2nc(SCC(=O)Nc3ccc(S(=O)(=O)N4CCCC4)cc3)c(C#N)cc2c1`, the IC50 result is “inactive”. For `CSc1ccc(SC2CN(Cc3ccc(C)cc3)S(=O)(=O)C2)cc1` (stereo unspecified), the IC50 entry was “inactive”. For `O=C(CN1CCCCC1)Nc1c2c(nc3ccccc13)N(c1ccccc1)CC2`, the concentration for half-maximal inhibition (IC50) was 3.26 µM. For the molecule `Cc1ccc2nsnc2c1NC(=O)c1sc2ccccc2c1Cl`, the IC50 is 1.49 µM.

For `O=C(CSc1ncnc2c1oc1ccccc12)Nc1ccc2c(c1)OCCO2`, the IC50 is > 40 µM (inactive). On to `CCCCCNC(=O)c1c[nH]c2ccc(S(=O)(=O)N3CCC4(CC3)OCCO4)cc2c1=O`, for which the IC50 result is “inactive”. For `Cc1cccc2cc(C#N)c(NCCNC(=O)NC3CCCCC3)nc12`, the IC50 entry is “inactive”. For the molecule `CCC(=O)c1ccc(OCC(=O)Nc2ccccc2C(=O)NC2CC2)cc1`, the 50% inhibitory concentration (IC50) was 4.7 µM. As for `O=C(COc1ncnc2c(Cl)cc(Cl)cc12)NC1CCCCCC1`, the figure is 0.847 µM. As for `CCCNC(=O)Nc1ccc2c(c1)C(=O)N(C)[C@H]1CC[C@H](CC(=O)NCC3CCCCC3)O[C@@H]1CO2`, the IC50 is > 40 µM (inactive).

Consider `Cc1cnc(NC(=O)c2cc3c(C)nn(-c4ccccc4)c3s2)s1`, for which the IC50 was 3.83 µM.

As to `CCc1nc2ccccc2c(C(=O)OCc2nc3ccccc3c(=O)[nH]2)c1C`, the IC50 was > 40 µM (inactive).

Consider `CC(=O)Oc1ccc(/C=N\NC(=O)c2cc3c(ccc4ccccc43)o2)cc1`, for which the IC50 entry was “inactive”. `CCOc1ccccc1NC(=O)CSC1=C(C#N)C(c2ccco2)C(C(=O)Nc2nc3ccccc3s2)=C(C)N1` (stereo unspecified): the IC50 is 4.49 µM. Turning to `CCC(=O)c1cn(CC(=O)Nc2ccc(C)cc2C)c2ccccc12`, the concentration for half-maximal inhibition (IC50) is 1.36 µM. Take `Cc1ccc2[nH]c(=O)c(CN(C(=O)c3cccs3)c3ccccc3)cc2c1`: the IC50 is 3.81 µM. As to `O=C(COC(=O)c1sc2cc(F)ccc2c1Cl)Nc1ncc(Cl)cc1Cl`, the IC50 was > 40 µM (inactive).

Regarding `COc1ccc(Br)cc1-c1nc2c(c(=O)[nH]c(=O)n2Cc2ccccc2)n1C`, the IC50 entry is “inactive”. As for `COc1ccc(NC(=O)CSc2nc(N)c(C#N)cc2C#N)cc1`, the figure is 5.76 µM. Take `CC(C)(C)C(=O)Nc1cc(S(=O)(=O)N2CCCCC2)ccc1N1CCCCC1`: the IC50 is > 40 µM (inactive).

Regarding `COc1ccc(-c2nc3c4ccccc4ccn3c2C=O)cc1`, the IC50 entry was “inactive”. The result for `CCOC(=O)CC(=O)CSc1nc(-c2ccc3c(c2)OCO3)cc(C(F)(F)F)c1C#N` reads “inactive”. On to `C[n+]1ccc(/C=C/c2c[nH]c3ccc(F)cc23)cc1`, for which the IC50 is > 40 µM (inactive).

Regarding `O=C(Nc1ccccc1)c1cc2c(=O)c3ccccc3oc2nc1C(F)(F)F`, the half-inhibitory concentration (IC50) was 6.94 µM. Take `COc1ccc(NC(=O)c2sc3cc(C(F)(F)F)cnc3c2-c2cccs2)cc1`: the IC50 was > 40 µM (inactive). `O=C(Nc1ccnc(-c2cccnc2)n1)c1ccc(Cl)cc1`: the IC50 is 5.12 µM. As for `COc1ccc(NC(=O)NNC(=O)COc2ccc3cc(Br)ccc3c2)cc1OC`, the figure is 8.29 µM; as for `Cn1c(=O)c(NCCc2ccccc2)c2c3c(cccc31)C(=O)c1ccccc1-2`, “inactive”; as for `COc1ccc2cc(C(=O)Nc3ccc(S(N)(=O)=O)cc3)sc(=O)c2c1OC`, 3.03 µM. As to `CN(c1ccc(O)cc1)c1ccc([N+](=O)[O-])c2nonc12`, the IC50 is 6 µM.

As for `N#CC1=C(SCC(N)=O)NC2=C(C(=O)c3ccccc32)C1c1ccc(Cl)cc1` (stereo unspecified), the IC50 was 7.01 µM.

On to `COc1ccc(-n2nc(C(=O)NCC(=O)Nc3cccc(Cl)c3)c3ccccc3c2=O)cc1OC`, for which the half-inhibitory concentration (IC50) is 2.6 µM. With `CC1CCN(Cc2cc(=O)oc3ccc(C(C)C)cc23)CC1`, the IC50 is 9.88 µM.

Turning to `COC(=O)c1ccc(CSc2ncnc3c2oc2ccccc23)o1`, the concentration for half-maximal inhibition (IC50) is 2.73 µM. The result for `Cn1c2ccccc2n2c(=O)c(Cl)c(-c3ccccc3)c(C#N)c12` reads 3.4 µM; that for `CCCCOc1ccc(C(=O)n2ccc3ccc(-c4ccc5ccn(Cc6ccccc6)c5c4)cc32)cc1`, > 40 µM (inactive); that for `CCOc1ccc(NC(=O)CNC(=O)c2nn(-c3ccc(OC)c(OC)c3)c(=O)c3ccccc23)cc1`, 7.23 µM. Take `COC(=O)c1ccc(C(=O)OC)c(NC(=O)N2c3ccccc3Sc3ccccc32)c1`: the IC50 was > 40 µM (inactive). Regarding `CN1C(=O)/C(=C\c2ccc(N3CCCCC3)o2)C(=O)NC1=S`, the 50% inhibitory concentration (IC50) is 3.49 µM. Regarding `COc1ccc(S(=O)(=O)N2CCCCCC2)cc1C(=O)Nc1ccc(C)cn1`, the IC50 was > 40 µM (inactive). Regarding `O=S(=O)(c1ccc2nc(N3CCN(c4ccccc4)CC3)ccc2c1)N1CCCCC1`, the IC50 entry is “inactive”. As to `Cc1ccc(C(=O)CSc2nc3ccccc3c(=O)n2-c2ccccc2)s1`, the IC50 is 7.75 µM. The result for `N#Cc1ccsc1NC(=O)COC(=O)c1cc(Br)ccc1O` reads “inactive”. The result for `Cc1c(Cl)ccc2c(C(N)=O)cc(-c3ccccn3)nc12` reads 5.97 µM. With `COc1ccc(OC)c(Nc2nc(-c3ccccc3O)nc3ccccc23)c1`, the IC50 is 9.61 µM. On to `Cc1ccc(NC(=O)c2sc(Cl)nc2-c2ccccc2)cc1C`, for which the IC50 result was “inactive”. The result for `Oc1ccccc1N=Nc1nc(-c2ccccc2)c(-c2ccccc2)[nH]1` reads 3.98 µM; that for `CCOC(=O)Cn1c(=NC(=O)c2cccs2)sc2cc(C(=O)OC)ccc21`, “inactive”. `Cc1ccc2nc(/C(C#N)=C/c3ccc(-c4ccccc4C(=O)O)o3)[nH]c2c1`: the IC50 entry is “inactive”.

On to `O=C(N=c1ccn(-c2nc3ccccc3nc2NS(=O)(=O)c2ccc(Cl)cc2)cc1)c1cccs1`, for which the IC50 is > 40 µM (inactive). `Cc1cccc(Nc2nn3c(=O)c4ccccc4nc3s2)c1`: the concentration for half-maximal inhibition (IC50) is 4.11 µM.

Take `OCC[n+]1ccc(/C=C/c2c[nH]c3ccccc23)cc1`: the IC50 was > 40 µM (inactive). As for `COC(=O)Cn1c(=NC(=O)CCS(=O)(=O)c2ccccc2)sc2c(OC)ccc(OC)c21`, the figure is 3.16 µM.

For `CC(C)CCSc1nc(N)c(C#N)cc1C#N`, the IC50 was 2.17 µM. Regarding `O=C(COC(=O)c1ccccc1SCC(=O)NC1CCCCC1)NC1CCCCC1`, the IC50 was 4.78 µM. Turning to `Cc1ccc2cc(C#N)c(SCC(=O)NNC(=O)Cc3ccccc3)nc2c1`, the half-inhibitory concentration (IC50) was 4.25 µM. Turning to `CN(C)c1ccc(N=Nc2ccccc2C(=O)OCC(=O)N2CCCC2)cc1`, the half-inhibitory concentration (IC50) was 0.527 µM. Consider `O=c1oc2c3c4c(cc2c(C(F)(F)F)c1CCN1CCOCC1)CCCN4CCC3`, for which the IC50 result was “inactive”. The result for `Cc1cccc(-c2nnn3c2nc(NCCc2ccc(S(N)(=O)=O)cc2)c2ccccc23)c1` reads > 40 µM (inactive); that for `Cc1ccc(/C=C/c2ccc(N(C)C)cc2)[n+](C)c1`, 9.09 µM. Consider `COc1ccc(C(=O)NNC(=O)C(Cc2ccc(O)cc2)NC(=O)c2ccccc2NC(=O)c2ccc(OC)cc2)cc1` (stereo unspecified), for which the IC50 entry is “inactive”. Regarding `C=CCSc1nc(N)c(C#N)c(-c2ccccc2)c1C#N`, the IC50 result is “inactive”.

For the molecule `CCn1c2ccccc2c2cc(C3C(C#N)=C(C)NC(C)=C3C#N)ccc21`, the IC50 is > 40 µM (inactive). As for `CCOc1ccccc1NC(=O)c1nnn(CC(=O)Nc2cc(C)cc(C)c2)c1N`, the figure is > 40 µM (inactive). `Cc1ccc(N(Cc2cc3cc(C)ccc3[nH]c2=O)C(=O)c2cccs2)cc1`: the half-inhibitory concentration (IC50) is 5.54 µM.

With `N#CCCN(CCC#N)S(=O)(=O)c1ccc(C(=O)Nc2nc(-c3ccccc3)c(C(=O)c3ccccc3)s2)cc1`, the IC50 is > 40 µM (inactive).

For the molecule `CCCCN1C(=O)/C(=C/C=C2\Oc3ccccc3N2CC)SC1=S`, the IC50 was 4.41 µM. For `COc1ccc(-c2nc(NC(=O)c3ccc(OCC(=O)Nc4ccc(F)cc4)c(OC)c3)sc2C)cc1`, the IC50 is > 40 µM (inactive). As for `Cc1cc(NC(=O)CSc2nc3c(C)ccc(C)c3cc2C#N)no1`, the figure is 3.19 µM; as for `CC1=Nc2ccccc2/C1=C/c1sc(=S)n(-c2cccc(C(=O)O)c2)c1O`, > 40 µM (inactive); as for `Cc1ccc(C2(C(F)(F)F)NC(=O)N3C(=C2C#N)Nc2ccccc23)cc1` (stereo unspecified), 2.68 µM. As for `COc1cc(N2N=C(c3ccccc3)CC2c2ccccc2)c(C=O)cc1C=O` (stereo unspecified), the figure is 4.6 µM; as for `CCOC(=O)c1c(-c2ccccc2)csc1NC(=O)/C(C#N)=C/c1ccc(O)c(OC)c1`, 7.23 µM. `COc1ccccc1NC(=O)c1oc2ccccc2c1NC(=O)c1cc(OC)c(OC)c(OC)c1`: the half-inhibitory concentration (IC50) was 4.77 µM.

`COc1cc(OC)cc(-c2c(C#Cc3ccsc3)c3cc(-c4ccc(SC)cc4)ccc3n2C)c1`: the IC50 is 7.92 µM. On to `NS(=O)(=O)c1ccc(CCNc2nc3c(-c4cccc(F)c4)nnn3c3ccccc23)cc1`, for which the IC50 was > 40 µM (inactive). For `CN1C(=O)CSC1=NCC12CC3CC(CC(C3)C1)C2`, the concentration for half-maximal inhibition (IC50) was 5.32 µM.

As for `Cc1nc(SCC(=O)Nc2ccccc2)c2oc3ccccc3c2n1`, the IC50 result was “inactive”. The result for `CCOC(=O)c1sc(=NC(=O)c2ccc(OC(C)C)cc2)n(C)c1C` reads 0.933 µM; that for `Cc1cccc(NC(=O)C2CCCN(S(=O)(=O)c3cccc4nsnc34)C2)c1` (stereo unspecified), 2.17 µM. For the molecule `COc1ccc2cc(C#N)c(Nc3cccc(F)c3)nc2c1`, the IC50 is 7.69 µM. The result for `O=C(COC(=O)c1cccnc1SCC(=O)NCc1ccccc1)NCc1ccccc1` reads 4.11 µM; that for `CC(=O)c1cccc(NC(=O)c2cccc(NC(=O)c3ccco3)c2)c1`, 1.57 µM. With `COc1ccc2[nH]cc(/C=C/c3cc[n+](C)cc3)c2c1`, the half-inhibitory concentration (IC50) is 5.25 µM.

In the case of `Cn1c(=O)c2c(nc(SCC(=O)c3cccs3)n2Cc2ccc(F)cc2)n(C)c1=O`, the IC50 is > 40 µM (inactive).

As for `CN1C(=O)C(=Cc2ccc(N3CCOCC3)o2)C(=O)N(C)C1=S`, the IC50 is 4.11 µM. `O=C(NCc1cc(C(F)(F)F)ccc1Cl)c1cccc2c1C(=O)c1ccc(Cl)cc1S2(=O)=O`: the IC50 was 4.22 µM. Consider `Cc1cc(-c2csc3nc[nH]c(=S)c23)cc(C)c1C`, for which the IC50 is 5.33 µM. Turning to `O=c1c2ccccc2nc2sc(Nc3cccc(Cl)c3)nn12`, the IC50 is 3.87 µM.

Usually IC50 stands for the concentration at which inhibition is half-maximal.

The values above are taken from PubChem BioAssay AID1259321 (Sanford-Burnham Center for Chemical Genomics, 2017).
